Results published in article PMC5118709, “Identification of Polo-like kinase 1 interaction inhibitors using a novel cell-based assay” (Scientific Reports, 2016).

Columns and labels:
CRAF-BRAF = target: T1, CRAF-BRAF (Homo sapiens, UniProt P04049+P15056); experiment: control BRET CRAF-BRAF (transient); assay type: cell-based
T1 construct: expressed in transfected cells; host or cells: HEK293T, transient transfection with PEI
Experimental: (§1) We used our cell-based assay to screen a library of 112 983 compounds available in-house at IRIC’s High-Throughput Screening (HTS) platform (see Materials & Methods). Compounds were tested on cells in 384-well plates at concentrations between 10 μM and 25 μM, depending on their concentration in the original stocks solutions. BRET readings were taken 2 hours after treatment. Results obtained show a tight, close to normal distribution centered around zero inhibition relative to DMSO-treated controls (Fig. 1D). Compounds inducing at least 30% BRET inhibition were selected. From these, auto-fluorescent compounds and those that induced more than 90% reduction in RLucII luminescence were removed, leaving 800 primary hits, that we then re-tested using the same assay. In parallel, we tested these compounds in a control BRET assay for an unrelated pair of interacting proteins (BRAF-CRAF[46]) to exclude false-positive compounds that could reduce the BRET signal by interfering with light or by modifying the activity of GFP or Luc.
For the confirmation screen, the same procedure as for the primary screen was followed, except that HEK293T cells were also seeded at 6.25 millions of cells per simple CellStack on day 1 for transient transfections. These cells were transfected on day 3 with Luc-Map (5 μg) and Plk1-GFP (25 μg) pIRESHyg3 plasmids using polyethylenimine (PEI). To identify false-positives compounds, Luc-CRAF (4 μg) and GFP-BRAF (20 μg) plasmids were also transfected with PEI following the published procedure.

stability by LC-MS = assay type: physicochemical
From the text: Based on these observations, we speculated that the sulfone undergoes a β-elimination of the benzoate subunit to generate a vinyl sulfone which is responsible for the biological activity of this class of compounds. Using LCMS, we evaluated the stability of Cpd 16 in the buffer used in the FP assay. […] The sulfone β-elimination is a base-catalysed process and the buffer used in the assay is basic enough to allow the reaction to occur. Under neutral or acidic conditions, the compound was very stable and no fragmentation was observed.
Cpd 161, which is 2-((6-methyl-4-(trifluoromethyl)pyridin-2-yl)sulfonyl)ethyl 3-chlorobenzoate (400 μM final concentration), was added to 500 μl of FP buffer (previously described).

Plk1 = target: T2, Plk1 (Homo sapiens, UniProt P53350); experiment: localization of Plk1 in mitotic cells; assay type: cell-based; details: up to 100 μM, data not shown
T2 construct: localization of Plk1-GFP or endogenous Plk1 from mitotic centrosomes, kinetochores or the cytokinetic midbody; endogenous in cells
T2 sequence (P53350 whole entry): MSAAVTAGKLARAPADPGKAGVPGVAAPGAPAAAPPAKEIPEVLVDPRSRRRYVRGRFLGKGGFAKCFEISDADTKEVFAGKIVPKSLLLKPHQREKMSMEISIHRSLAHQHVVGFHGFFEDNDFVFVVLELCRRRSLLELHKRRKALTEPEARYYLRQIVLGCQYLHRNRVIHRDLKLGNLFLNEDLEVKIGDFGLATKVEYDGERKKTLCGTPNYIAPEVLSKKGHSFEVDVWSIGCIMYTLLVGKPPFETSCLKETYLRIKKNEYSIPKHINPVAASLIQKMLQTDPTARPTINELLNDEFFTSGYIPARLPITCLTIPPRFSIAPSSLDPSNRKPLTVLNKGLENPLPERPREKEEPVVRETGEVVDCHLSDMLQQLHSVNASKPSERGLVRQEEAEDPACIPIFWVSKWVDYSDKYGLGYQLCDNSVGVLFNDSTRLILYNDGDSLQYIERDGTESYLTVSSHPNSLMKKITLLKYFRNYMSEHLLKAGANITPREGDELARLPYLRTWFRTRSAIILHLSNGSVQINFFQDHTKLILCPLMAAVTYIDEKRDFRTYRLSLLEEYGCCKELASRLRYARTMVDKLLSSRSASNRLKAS

Plk1-Map interaction = Plk1-Map interaction (Homo sapiens, UniProt P53350); experiment: BRET Plk1-Map, stable HEK293T Plk1-Luc/GFP-Map cell line; assay type: cell-based; design: cDNAs for the human full length Plk1; expressed in transfected cells
Chain of Plk1-Map interaction (P53350 whole entry): as above
From the text: To develop a cell-based assay for the identification of Plk1 interaction inhibitors, we used Bioluminescence Resonance Energy Transfer (BRET)[42][43]. The assay monitors the interaction in HEK293T cells between Plk1 and Map205, a protein that we previously identified as an interactor of Drosophila Polo (Plk1 ortholog) on its PBD[44]. Although no ortholog of Drosophila Map205 has been found in vertebrates, this protein robustly interacts with vertebrate Plk1. […] Importantly, crystallography with zebrafish Plk1 has recently shown that Map205 nevertheless docks in the canonical phosphopeptide binding site of the PBD, with the natural phospho-mimetic Glu314 residue (Fig. 1A)[45]. In our assay, human Plk1 and a fragment of Drosophila Map205 (Map205_254-416 = Map) are respectively fused to Renilla luciferase II (Luc) and GFP10 (GFP), giving rise to energy transfer when the proteins are in close proximity (Fig. 1B). […] All combinations of Plk1 and Map tagged with Luc and GFP were tested (Supplementary Fig. S1). The Plk1-Luc/GFP-Map combination was selected because it yielded the highest BRET dynamic window. We then generated clonal stable cell lines co-expressing these two fusion proteins. These cell lines behaved very similarly to each other in BRET, and we selected one line that gave a high and reproducible BRET signal, with a Z′ score of 0.78, indicative of a robust assay for the purpose of a chemical screen (Supplementary Fig. S1).
as §1
For BRET on transiently transfected cells, 48 hours after the transfection, medium was removed, cells were washed twice with PBS, and then Tyrode solution (140 mM NaCl, 2.7 mM KCl, 12 mM NaHCO3, 5.6 mM D-glucose, 0.49 mM MgCl2, 0.37 mM NaH2PO4, 25 mM HEPES, pH 7.4, where 1 mM CaCl2 was freshly added) was added to the cells. Total fluorescence was first measured using a FlexStation II microplate reader (Molecular Devices), where the GFP10 was excited at 400 nm and read at 510 nm. Then, cells were treated for 5 minutes with 2.5 μM coelenterazine 400a (Gold Technology) before reading BRET2 using the Mithras LB940 microplate reader (Berthold Technologies). BRET2 signal corresponds to the light emitted by the GFP10 acceptor constructs (515 nm ± 20 nm) divided by the light emitted by the RlucII donor constructs (400 nm ± 70 nm). Net BRET2 was calculated by subtracting the background BRET ratio of the RLucII plasmid alone from the BRET ratio obtained by the two BRET partners. The Net BRET2 was plotted according to the GFP10/RLucII ratio, which was obtained by dividing the total fluorescence by the RLucII emission.
For the high throughput chemical screen, cells were amplified and frozen as multiple 1 ml aliquots containing 25 millions of stable HEK293T Plk1-Luc/GFP-Map cells to ensure that cells at the same passage number are used during the screen. […] Five days later, cells were counted and re-suspended in Tyrode solution. […]

T1 sequence (P04049 whole entry): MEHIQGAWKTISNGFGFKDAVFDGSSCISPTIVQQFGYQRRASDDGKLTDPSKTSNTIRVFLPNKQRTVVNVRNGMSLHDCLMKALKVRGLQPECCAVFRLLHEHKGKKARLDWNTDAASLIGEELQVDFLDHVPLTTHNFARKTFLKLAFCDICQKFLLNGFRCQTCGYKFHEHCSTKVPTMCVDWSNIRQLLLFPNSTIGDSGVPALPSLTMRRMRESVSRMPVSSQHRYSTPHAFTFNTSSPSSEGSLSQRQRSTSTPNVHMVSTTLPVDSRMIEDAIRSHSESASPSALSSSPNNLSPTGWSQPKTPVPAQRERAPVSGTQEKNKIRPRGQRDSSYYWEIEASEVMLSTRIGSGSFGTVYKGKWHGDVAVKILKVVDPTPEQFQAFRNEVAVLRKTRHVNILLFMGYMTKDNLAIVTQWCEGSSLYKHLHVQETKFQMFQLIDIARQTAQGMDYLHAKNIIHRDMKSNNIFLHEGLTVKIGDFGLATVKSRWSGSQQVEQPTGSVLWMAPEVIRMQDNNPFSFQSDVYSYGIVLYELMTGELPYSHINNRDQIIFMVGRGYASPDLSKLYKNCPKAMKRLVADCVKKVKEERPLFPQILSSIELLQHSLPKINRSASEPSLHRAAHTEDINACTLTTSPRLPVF
T1 sequence (P15056 whole entry): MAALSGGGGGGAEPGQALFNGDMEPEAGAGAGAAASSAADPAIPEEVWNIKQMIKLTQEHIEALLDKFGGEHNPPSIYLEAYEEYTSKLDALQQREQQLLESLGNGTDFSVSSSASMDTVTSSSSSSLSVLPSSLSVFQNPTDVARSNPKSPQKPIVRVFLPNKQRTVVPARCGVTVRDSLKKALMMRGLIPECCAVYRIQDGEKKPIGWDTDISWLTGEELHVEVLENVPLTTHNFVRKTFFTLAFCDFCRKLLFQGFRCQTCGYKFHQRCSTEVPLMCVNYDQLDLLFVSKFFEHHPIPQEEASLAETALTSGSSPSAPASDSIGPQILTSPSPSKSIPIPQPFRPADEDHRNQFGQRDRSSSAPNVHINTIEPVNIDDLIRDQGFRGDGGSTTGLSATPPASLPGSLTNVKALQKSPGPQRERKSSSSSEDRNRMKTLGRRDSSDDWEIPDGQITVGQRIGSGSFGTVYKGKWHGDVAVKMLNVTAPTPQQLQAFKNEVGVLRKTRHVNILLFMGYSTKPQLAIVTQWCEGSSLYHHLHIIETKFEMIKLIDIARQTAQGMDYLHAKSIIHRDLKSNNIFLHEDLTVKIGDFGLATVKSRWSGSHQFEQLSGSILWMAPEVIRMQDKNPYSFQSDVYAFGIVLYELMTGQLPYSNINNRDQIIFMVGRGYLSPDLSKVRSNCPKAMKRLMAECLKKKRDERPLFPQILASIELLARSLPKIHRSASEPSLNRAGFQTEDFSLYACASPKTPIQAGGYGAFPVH

- Primary screen CRAF-BRAF (transient) % Inihibition (CRAF-BRAF; 10-25 μM): 52.83%
- Primary screen CRAF-BRAF (transient) % Quench RLuc (CRAF-BRAF; 10-25 μM): 88.39%
- Confirmation CRAF-BRAF (transient) % Inihibition (CRAF-BRAF; confirmation screen): 0.37%
- Confirmation CRAF-BRAF (transient) % Quench RLuc (CRAF-BRAF; confirmation screen): 80.17%
- stability in the FP buffer (stability by LC-MS; approximate pH 8.0, a few minutes (approximately 10 minutes)): fragmentation occurred
- stability (stability by LC-MS; neutral or acidic conditions): very stable
- effect on localization of Plk1 in mitotic cells (Plk1): did not result in a significant decrease
- Primary screen Plk1-Map (stable) % Inihibition (Plk1-Map interaction; 10-25 μM, 2 h): 67.34%
- Primary screen Plk1-Map (stable) % Quench RLuc (Plk1-Map interaction; 10-25 μM, 2 h): 86.24%
- Confirmation Plk1-Map (stable) % Inihibition (Plk1-Map interaction; confirmation screen): 30.79%
- Confirmation Plk1-Map (stable) % Quench RLuc (Plk1-Map interaction; confirmation screen): 81.37%
Compound: Cc1cc(C(F)(F)F)cc(S(=O)(=O)CCOC(=O)c2cccc(Cl)c2)n1 [Cpd 16, 2-((6-methyl-4-(trifluoromethyl)pyridin-2-yl)sulfonyl)ethyl 3-chlorobenzoate]
